Reference: PMC10176470, “Engaging a Non-catalytic Cysteine Residue Drives Potent and Selective Inhibition of Caspase-6” (Journal of the American Chemical Society, 2023)

Tests used:
Experiment in all cases: SILAC proteomics / in-gel fluorescence, competition of probe 13-t labeling by 3a
[1] = molecular target: proteins of HEK293T cells transiently overexpressing caspase-6 (Homo sapiens, UniProt P15880); conditions: Comp; protein RPS2 P15880
Protocol: (§1) Cells were lysed, and heavy and light SILAC lysates were combined in a 1:1 ratio and subjected to CuAAC reaction with azido-biotin to biotinylate probe-labeled proteins for subsequent capture on streptavidin-coated beads. Bead-bound proteins were split for analysis by in-gel fluorescence and tryptic digestion on-bead for LC–MS/MS analysis.
(§2) SILAC labeling and alkyne probe treatment: HEK293T cells were seeded into 8x 15 cm plates at
(§3) a density of 500,000 cells/plate. 4 of these plates were grown in light SILAC DMEM and 4 were
(§4) grown in heavy SILAC DMEM all containing 10% FBS and 4.5g/L glucose. The next day, all 8
(§5) plates were transfected with a pCMV6-Entry plasmid coding for caspase-6-myc-DDK lacking the
(§6) prodomain. After 24 hours, media was replaced with fresh SILAC growth media containing 4.5 g/L
(§7) glucose and 3% FBS. 24 hours later the plates were treated with probe and inhibitor for 1 hours as
(§8) follows: 2 of the light plates were treated with vehicle, 2 light plates and 2 heavy plates treated with
(§9) for 60 minutes. After treatment, media was removed, and cells were washed with 15 mL PBS for 5
(§10) minutes. Cells were then harvested by scraping in cold PBS and lysed in the presence of Roche
(§11) complete protease inhibitors. Lysates were clarified by centrifugation at 10,000xg for 10 minutes and
(§12) the protein in the supernatant was quantified by BCA assay.
(§13) Proteomics assay: 1 mg of each lysate was diluted to 2mg/ml in PBS with Roche complete protease
(§14) inhibitors. To this was added 0.1 mM biotin-azide, 1 mM tris(2-carboxyethyl)phosphine (TCEP), 0.1
(§15) mM Tris((1-benzyl-4-triazolyl)methyl)amine (TBTA) ligand, and 1 mM CuSO4 in a final volume of
(§16) 0.5 mL. The reaction was incubated at room temperature for 1 hour and was vortexed every 15
(§17) minutes. After 1 hour, proteins are precipitated and are pelleted by centrifuging at 16,000xg for 4
(§18) min at 4 °C. The supernatants were discarded, and the pellets were solubilized with 0.5 mL cold
(§19) The cold methanol wash was then repeated, and the washed
(§20) pellets were resuspended in 1 mL of 1.2% SDS and sonicated until clear. The samples were heat
(§21) denatured at 80-90 °C for 5 minutes and any insoluble particles were removed by centrifugation at
(§22) 6,500xg for 5 minutes. The 1 mL supernatant was transferred to a 15 mL conical tubes containing 5
(§23) mL of PBS and 150 µL of washed neutravidin beads were added. The samples were incubated for 2
(§24) hours at 4 °C while rotating, at which point the samples were warmed to resolubilize any precipitated
(§25) SDS. The beads were pelleted by centrifugation at 1400xg for 3 min and washed for 10 minutes with
(§26) the following solutions: 2x 1% NP-40, 2x PBS + 1 M NaCl, and 2x 50 mM ammonium bicarbonate
(§27) (ABC) + 2 M urea. The beads were then transferred to a 1.5 mL microcentrifuge tube using 2x250
(§28) µL 100 mM Tris pH 8.0 + 4 M Guanidium hydrochloride (final volume 500 µL).

[2] = molecular target: proteins of HEK293T cells transiently overexpressing caspase-6 (Homo sapiens, UniProt P14868); conditions: Comp; protein DARS P14868
Protocol: as §1, §2, §3, §4, §5, §6, §7, §8, §9, §10, §11, §12, §13, §14, §15, §16, §17, §18, §19, §20, §21, §22, §23, §24, §25, §26, §27, §28

[3] = molecular target: proteins of HEK293T cells transiently overexpressing caspase-6 (Homo sapiens, UniProt P35606); conditions: Comp; protein COPB2 P35606
Protocol: as §1, §2, §3, §4, §5, §6, §7, §8, §9, §10, §11, §12, §13, §14, §15, §16, §17, §18, §19, §20, §21, §22, §23, §24, §25, §26, §27, §28

[4] = molecular target: proteins of HEK293T cells transiently overexpressing caspase-6 (Homo sapiens, UniProt P12956); conditions: Comp; protein XRCC6 P12956
Protocol: as §1, §2, §3, §4, §5, §6, §7, §8, §9, §10, §11, §12, §13, §14, §15, §16, §17, §18, §19, §20, §21, §22, §23, §24, §25, §26, §27, §28

[5] = molecular target: proteins of HEK293T cells transiently overexpressing caspase-6 (Homo sapiens, UniProt P09874); conditions: Comp; protein PARP1 P09874
Protocol: as §1, §2, §3, §4, §5, §6, §7, §8, §9, §10, §11, §12, §13, §14, §15, §16, §17, §18, §19, §20, §21, §22, §23, §24, §25, §26, §27, §28

[6] = molecular target: proteins of HEK293T cells transiently overexpressing caspase-6 (Homo sapiens, UniProt P13797); conditions: Comp; protein PLS3 P13797
Protocol: as §1, §2, §3, §4, §5, §6, §7, §8, §9, §10, §11, §12, §13, §14, §15, §16, §17, §18, §19, §20, §21, §22, §23, §24, §25, §26, §27, §28

[7] = molecular target: proteins of HEK293T cells transiently overexpressing caspase-6 (Homo sapiens, UniProt P07814); conditions: Comp; protein EPRS P07814
Protocol: as §1, §2, §3, §4, §5, §6, §7, §8, §9, §10, §11, §12, §13, §14, §15, §16, §17, §18, §19, §20, §21, §22, §23, §24, §25, §26, §27, §28

[8] = molecular target: proteins of HEK293T cells transiently overexpressing caspase-6 (Homo sapiens, UniProt Q15233); conditions: Comp; protein NONO Q15233
Protocol: as §1, §2, §3, §4, §5, §6, §7, §8, §9, §10, §11, §12, §13, §14, §15, §16, §17, §18, §19, §20, §21, §22, §23, §24, §25, §26, §27, §28

[9] = molecular target: proteins of HEK293T cells transiently overexpressing caspase-6 (Homo sapiens, UniProt P63261); conditions: Comp; protein ACTG1 P63261
Protocol: as §1, §2, §3, §4, §5, §6, §7, §8, §9, §10, §11, §12, §13, §14, §15, §16, §17, §18, §19, §20, §21, §22, §23, §24, §25, §26, §27, §28

[10] = molecular target: proteins of HEK293T cells transiently overexpressing caspase-6 (Homo sapiens, UniProt Q9Y262)
Protocol: as §1, §2, §3, §4, §5, §6, §7, §8, §9, §10, §11, §12, §13, §14, §15, §16, §17, §18, §19, §20, §21, §22, §23, §24, §25, §26, §27, §28

[11] = molecular target: proteins of HEK293T cells transiently overexpressing caspase-6 (Homo sapiens, UniProt P17987); conditions: Comp; protein TCP1 P17987
Protocol: as §1, §2, §3, §4, §5, §6, §7, §8, §9, §10, §11, §12, §13, §14, §15, §16, §17, §18, §19, §20, §21, §22, §23, §24, §25, §26, §27, §28

[12] = molecular target: proteins of HEK293T cells transiently overexpressing caspase-6 (Homo sapiens, UniProt P10809); conditions: Comp; protein HSPD1 P10809
Protocol: as §1, §2, §3, §4, §5, §6, §7, §8, §9, §10, §11, §12, §13, §14, §15, §16, §17, §18, §19, §20, §21, §22, §23, §24, §25, §26, §27, §28

[13] = molecular target: T1, proteins of HEK293T cells transiently overexpressing caspase-6 (Homo sapiens, UniProt P30041); conditions: Comp; protein PRDX6 P30041
T1 sequence (P30041 1-224): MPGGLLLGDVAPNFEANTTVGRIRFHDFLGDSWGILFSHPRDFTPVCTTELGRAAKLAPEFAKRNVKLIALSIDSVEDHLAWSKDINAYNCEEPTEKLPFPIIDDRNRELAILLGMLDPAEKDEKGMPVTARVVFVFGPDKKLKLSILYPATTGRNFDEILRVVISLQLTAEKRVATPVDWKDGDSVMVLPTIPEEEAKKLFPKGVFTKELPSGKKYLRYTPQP
Protocol: as §1, §2, §3, §4, §5, §6, §7, §8, §9, §10, §11, §12, §13, §14, §15, §16, §17, §18, §19, §20, §21, §22, §23, §24, §25, §26, §27, §28

[14] = molecular target: proteins of HEK293T cells transiently overexpressing caspase-6 (Homo sapiens, UniProt P13010); conditions: Comp; protein XRCC5 P13010
Protocol: as §1, §2, §3, §4, §5, §6, §7, §8, §9, §10, §11, §12, §13, §14, §15, §16, §17, §18, §19, §20, §21, §22, §23, §24, §25, §26, §27, §28

[15] = protein EIF3L (Q9Y262), Exp Comp, analysis C6, p 0.8438, 6 peptides

Chain of proteins of HEK293T cells transiently overexpressing caspase-6 (Homo sapiens, UniProt Q9Y262) (Q9Y262 whole entry): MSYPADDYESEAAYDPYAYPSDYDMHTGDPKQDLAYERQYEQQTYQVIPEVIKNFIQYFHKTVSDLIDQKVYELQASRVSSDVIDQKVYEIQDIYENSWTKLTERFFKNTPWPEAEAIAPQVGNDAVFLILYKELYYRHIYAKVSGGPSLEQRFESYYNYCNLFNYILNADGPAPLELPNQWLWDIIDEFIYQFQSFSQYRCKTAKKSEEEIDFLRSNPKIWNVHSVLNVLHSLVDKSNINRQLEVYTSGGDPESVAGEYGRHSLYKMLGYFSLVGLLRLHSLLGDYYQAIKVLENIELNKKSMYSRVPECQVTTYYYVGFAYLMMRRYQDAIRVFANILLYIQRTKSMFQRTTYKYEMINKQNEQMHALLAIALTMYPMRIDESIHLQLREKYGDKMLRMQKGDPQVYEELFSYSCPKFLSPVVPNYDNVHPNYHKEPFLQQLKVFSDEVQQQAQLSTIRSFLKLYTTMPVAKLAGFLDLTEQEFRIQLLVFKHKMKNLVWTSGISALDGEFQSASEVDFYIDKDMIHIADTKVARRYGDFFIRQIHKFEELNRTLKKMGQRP
Chain of proteins of HEK293T cells transiently overexpressing caspase-6 (Homo sapiens, UniProt P09874) (P09874 whole entry): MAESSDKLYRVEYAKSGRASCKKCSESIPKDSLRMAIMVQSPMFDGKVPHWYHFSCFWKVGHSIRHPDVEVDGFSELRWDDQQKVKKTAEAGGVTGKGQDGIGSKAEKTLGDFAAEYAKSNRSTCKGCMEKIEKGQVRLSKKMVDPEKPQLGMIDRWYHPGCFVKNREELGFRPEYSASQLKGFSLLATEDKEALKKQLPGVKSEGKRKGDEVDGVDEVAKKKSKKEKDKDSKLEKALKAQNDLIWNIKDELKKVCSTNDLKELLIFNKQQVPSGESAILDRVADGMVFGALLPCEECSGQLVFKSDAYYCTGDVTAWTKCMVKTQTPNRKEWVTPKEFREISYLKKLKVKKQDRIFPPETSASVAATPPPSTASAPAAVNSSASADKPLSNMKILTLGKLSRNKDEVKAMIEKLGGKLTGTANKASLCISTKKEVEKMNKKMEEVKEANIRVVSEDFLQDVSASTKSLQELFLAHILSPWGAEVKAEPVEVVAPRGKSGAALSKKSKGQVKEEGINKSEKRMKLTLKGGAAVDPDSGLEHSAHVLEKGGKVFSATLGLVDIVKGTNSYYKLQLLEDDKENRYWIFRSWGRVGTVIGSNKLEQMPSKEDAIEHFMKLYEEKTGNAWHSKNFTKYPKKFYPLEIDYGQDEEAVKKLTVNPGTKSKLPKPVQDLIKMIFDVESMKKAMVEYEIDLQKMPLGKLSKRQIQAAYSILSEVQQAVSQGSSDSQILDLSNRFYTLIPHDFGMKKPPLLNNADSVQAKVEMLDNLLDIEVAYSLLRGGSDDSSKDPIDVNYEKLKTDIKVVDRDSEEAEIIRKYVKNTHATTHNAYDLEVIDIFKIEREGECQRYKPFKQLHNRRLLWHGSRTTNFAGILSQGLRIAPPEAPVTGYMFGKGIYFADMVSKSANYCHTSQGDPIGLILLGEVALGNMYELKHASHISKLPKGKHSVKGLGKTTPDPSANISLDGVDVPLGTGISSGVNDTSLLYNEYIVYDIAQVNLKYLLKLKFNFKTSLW
Chain of proteins of HEK293T cells transiently overexpressing caspase-6 (Homo sapiens, UniProt P10809) (P10809 27-573): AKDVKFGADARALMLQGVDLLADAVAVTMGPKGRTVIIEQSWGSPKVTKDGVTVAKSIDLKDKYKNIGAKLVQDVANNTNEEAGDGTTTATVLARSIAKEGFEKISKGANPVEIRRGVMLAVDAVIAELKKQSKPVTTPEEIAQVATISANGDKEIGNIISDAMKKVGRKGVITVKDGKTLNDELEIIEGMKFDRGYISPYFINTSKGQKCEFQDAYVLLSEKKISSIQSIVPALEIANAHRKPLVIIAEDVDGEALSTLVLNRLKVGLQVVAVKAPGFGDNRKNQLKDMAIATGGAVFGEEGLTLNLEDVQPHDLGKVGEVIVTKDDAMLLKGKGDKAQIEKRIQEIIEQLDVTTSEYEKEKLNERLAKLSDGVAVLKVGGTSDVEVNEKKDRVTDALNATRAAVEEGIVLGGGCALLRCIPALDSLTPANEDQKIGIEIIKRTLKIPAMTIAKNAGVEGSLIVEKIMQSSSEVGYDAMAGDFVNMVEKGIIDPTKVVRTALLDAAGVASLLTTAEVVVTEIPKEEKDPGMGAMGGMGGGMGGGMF
Chain of proteins of HEK293T cells transiently overexpressing caspase-6 (Homo sapiens, UniProt P14868) (P14868 whole entry): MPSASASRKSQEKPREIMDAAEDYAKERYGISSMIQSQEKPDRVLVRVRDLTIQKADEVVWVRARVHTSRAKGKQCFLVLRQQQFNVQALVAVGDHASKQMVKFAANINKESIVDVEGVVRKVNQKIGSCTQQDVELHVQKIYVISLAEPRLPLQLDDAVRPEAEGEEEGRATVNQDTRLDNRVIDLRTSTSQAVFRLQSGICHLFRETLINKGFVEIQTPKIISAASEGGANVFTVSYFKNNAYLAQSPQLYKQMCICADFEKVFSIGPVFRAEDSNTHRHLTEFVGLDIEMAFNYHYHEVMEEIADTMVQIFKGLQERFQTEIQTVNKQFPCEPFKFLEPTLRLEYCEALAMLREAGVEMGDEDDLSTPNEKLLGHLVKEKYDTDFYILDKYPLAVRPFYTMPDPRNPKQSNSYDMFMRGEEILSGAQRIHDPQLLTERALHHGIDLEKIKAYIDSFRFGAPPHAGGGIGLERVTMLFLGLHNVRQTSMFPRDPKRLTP
Chain of proteins of HEK293T cells transiently overexpressing caspase-6 (Homo sapiens, UniProt P13797) (P13797 whole entry): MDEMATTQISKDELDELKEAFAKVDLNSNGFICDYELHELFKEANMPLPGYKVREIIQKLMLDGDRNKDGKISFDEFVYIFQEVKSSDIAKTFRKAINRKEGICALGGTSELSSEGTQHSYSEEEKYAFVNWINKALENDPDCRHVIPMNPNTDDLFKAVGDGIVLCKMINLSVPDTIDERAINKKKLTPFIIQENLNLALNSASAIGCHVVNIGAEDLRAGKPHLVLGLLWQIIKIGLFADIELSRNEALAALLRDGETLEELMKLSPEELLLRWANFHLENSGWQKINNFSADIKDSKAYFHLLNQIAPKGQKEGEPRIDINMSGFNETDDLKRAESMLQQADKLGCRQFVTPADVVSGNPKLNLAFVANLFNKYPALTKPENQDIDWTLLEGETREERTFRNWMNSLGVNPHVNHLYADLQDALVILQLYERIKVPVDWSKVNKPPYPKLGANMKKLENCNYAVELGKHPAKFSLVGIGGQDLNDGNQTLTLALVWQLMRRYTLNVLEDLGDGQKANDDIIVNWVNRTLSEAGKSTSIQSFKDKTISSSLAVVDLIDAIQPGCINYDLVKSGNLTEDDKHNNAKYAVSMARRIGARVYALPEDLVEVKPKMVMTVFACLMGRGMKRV
Chain of proteins of HEK293T cells transiently overexpressing caspase-6 (Homo sapiens, UniProt P12956) (P12956 whole entry): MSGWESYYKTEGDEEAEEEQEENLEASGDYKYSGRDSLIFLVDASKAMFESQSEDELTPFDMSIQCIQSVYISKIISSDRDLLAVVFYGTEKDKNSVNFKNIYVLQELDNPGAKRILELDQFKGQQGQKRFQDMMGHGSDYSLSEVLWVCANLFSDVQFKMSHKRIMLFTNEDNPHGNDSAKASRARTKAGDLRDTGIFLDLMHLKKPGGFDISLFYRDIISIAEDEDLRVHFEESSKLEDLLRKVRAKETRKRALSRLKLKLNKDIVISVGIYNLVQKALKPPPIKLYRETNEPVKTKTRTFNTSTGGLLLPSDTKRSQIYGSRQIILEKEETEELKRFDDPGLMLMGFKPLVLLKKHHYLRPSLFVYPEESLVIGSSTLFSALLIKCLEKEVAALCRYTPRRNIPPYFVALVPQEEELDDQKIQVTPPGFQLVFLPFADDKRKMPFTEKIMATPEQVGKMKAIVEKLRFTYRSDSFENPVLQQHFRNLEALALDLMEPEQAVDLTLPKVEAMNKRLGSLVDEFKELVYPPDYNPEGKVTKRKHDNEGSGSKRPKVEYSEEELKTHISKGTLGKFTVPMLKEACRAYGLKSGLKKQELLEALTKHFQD
Chain of proteins of HEK293T cells transiently overexpressing caspase-6 (Homo sapiens, UniProt Q15233) (Q15233 whole entry): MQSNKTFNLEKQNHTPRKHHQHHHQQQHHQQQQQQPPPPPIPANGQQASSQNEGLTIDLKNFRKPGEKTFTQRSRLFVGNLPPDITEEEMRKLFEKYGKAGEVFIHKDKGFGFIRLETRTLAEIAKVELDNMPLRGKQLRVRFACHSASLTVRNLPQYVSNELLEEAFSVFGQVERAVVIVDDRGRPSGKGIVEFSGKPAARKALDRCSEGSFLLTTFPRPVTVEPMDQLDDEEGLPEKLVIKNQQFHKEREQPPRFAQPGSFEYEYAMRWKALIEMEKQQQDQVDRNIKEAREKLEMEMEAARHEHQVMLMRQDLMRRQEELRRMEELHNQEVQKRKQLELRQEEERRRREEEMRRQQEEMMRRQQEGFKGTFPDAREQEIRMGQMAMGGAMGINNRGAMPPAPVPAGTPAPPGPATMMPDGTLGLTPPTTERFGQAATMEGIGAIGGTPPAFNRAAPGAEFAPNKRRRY
Chain of proteins of HEK293T cells transiently overexpressing caspase-6 (Homo sapiens, UniProt P17987) (P17987 whole entry): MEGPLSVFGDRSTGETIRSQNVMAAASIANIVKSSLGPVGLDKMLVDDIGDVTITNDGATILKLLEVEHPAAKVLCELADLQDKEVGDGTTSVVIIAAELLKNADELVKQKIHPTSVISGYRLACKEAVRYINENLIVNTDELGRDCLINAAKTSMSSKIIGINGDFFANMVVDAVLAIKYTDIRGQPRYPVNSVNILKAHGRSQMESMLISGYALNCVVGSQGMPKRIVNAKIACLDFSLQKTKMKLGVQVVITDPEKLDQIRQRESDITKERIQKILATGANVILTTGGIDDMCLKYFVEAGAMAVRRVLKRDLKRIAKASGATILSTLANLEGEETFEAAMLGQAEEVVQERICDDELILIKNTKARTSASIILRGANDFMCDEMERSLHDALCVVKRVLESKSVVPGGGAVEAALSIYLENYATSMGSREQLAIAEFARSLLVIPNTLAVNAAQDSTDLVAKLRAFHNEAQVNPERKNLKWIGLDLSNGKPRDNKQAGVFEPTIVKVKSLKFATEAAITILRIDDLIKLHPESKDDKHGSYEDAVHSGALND

In the case of `C=CS(=O)(=O)N1C[C@H](C(=O)Nc2ccc(OC(F)(F)F)cc2)C[C@@H](c2ccccc2)C1` [3a], the enrich.exp.med [1] is reported as 0.7281, the enrich.exp.med [2] is reported as 0.8565 and the enrich.exp.med [3] is reported as 0.6156. The enrich.exp.med [4] was 0.7902, the enrich.exp.med [5] was 0.6484 and the enrich.exp.med [6] was 0.6361. The enrich.exp.med [7] was 0.7098, the enrich.exp.med [8] was 0.6126 and the enrich.exp.med [9] was 0.7588. The enrich.exp.med ([10]; Comp, protein EIF3L Q9Y262) was 1.059, the enrich.exp.med.lin [10, 15] was 2.083 and the enrich.exp.med.log2 [10, 15] was 1.059. The enrich.exp.med [11] was 0.7901, the enrich.exp.med [12] was 0.6402 and the enrich.exp.med [13] was 0.6066. For the same compound, the enrich.exp.med [14] was 0.6006.
